According to patent publication US5436243A, “Aminoanthraquinone derivatives to combat multidrug resistance” (priority 1993, dated 1995):
“Also recorded” adds a separate entry of the source.

What was measured:
serine threonine kinases = assay: In vitro assays of serine threonine kinases; type: biochemical
P-glycoprotein = assay: Phosphorylation of P-glycoprotein in intact MCF7 Adr 10 cells; type: cell-based, human; conditions: MCF7 Adr 10, representative time course experiment, FIG. 12
Description: (§1) The effects of compound 1c on phosphorylation of the P-glycoprotein and the MARCKS protein (myristoylated alanine-rich C kinase substrate) was studied in intact cells labeled with [^32 P] orthophosphate. The MARCKS protein (also known as the 80 to 87 kD protein) is observed to be rapidly phosphorylated subsequent to PKC activation by phorbol esters, cell permeant diacylglycerols, growth factor and hormonal stimulation in a variety of cell types from several species. […] In these experiments, phosphorylation of MARCKS was used as a marker of cellular PKC activity. The effects of 1c on phosphorylation states of the P-glycoprotein and MARCKS protein were studied to test the possibility that this compound may be inhibiting PKC in cells; due to metabolism to an active PKC inhibitor or by achieving inhibitory concentrations in the microenvironment of the P-glycoprotein.
(§2) METHOD: A monoclonal antibody to the P-glycoprotein, C219, was used to immunoprecipitate the P-glycoprotein and a polyclonal rabbit antibody was used to immunoprecipitate the MARCKS protein from extracts of cells labeled with [^32 P]. MARCKS was immunoprecipitated after preclearing the aliquot with normal rabbit IgG. MCF7 Adr 10 cells were labeled with [^32 P] orthophosphate for two hours. […] P-glycoprotein and MARCKS were immunoprecipitated from aliquots of the same sample containing equivalent radioactivity.

calmodulin kinase = assay: Calmodulin kinase inhibition; type: biochemical
Description: (§3) One possible explanation for stimulation of phosphorylation of P-glycoprotein and MARCKS is that 1c may activate PKC or other cellular kinases by signal transduction pathways that have not yet been identified to phosphorylate these proteins. An alternative explanation for stimulation of phosphorylation of P-glycoprotein and MARCKS is that 1c inhibits protein phosphatases.

casein kinase 2 = assay: Casein kinase 2 inhibition; type: biochemical
Description: as §3

[1] = test system: SKRC7 human renal cell line; assay: Vinblastine accumulation assay, SKRC7; type: cell-based; conditions: 10 μM, 10 nM [3H] vinblastine
Procedure: These cell lines are models of intrinsic resistance.
[^3 H] vinblastine was added to a final concentration of 10 nM and the cells were incubated for 2.5 hours. At this time, the cells were washed 3 times in ice cold PBS and lysed in buffer containing 0.1% Triton X-100.

MARCKS protein = assay: Phosphorylation of MARCKS in intact MCF7 Adr 10 cells; type: cell-based, human; conditions: MCF7 Adr 10, representative time course experiment, FIG. 12
Description: as §1, §2

MCF7 Adr 10 [2] = assay: Tumor cell clonogenic assay, MCF7 ADR 10; type: cell-based, human
Procedure: The tumor cell clonogenic assays measure clonal proliferation of tumor cells. In this assay, 300-500 cells are plated in 10 cm^2 wells, allowed to adhere overnight, and are treated the following day. Tumor cell colonies were counted after 10-12 days of culture. The times of exposure in these experiments are similar; however, the concentrations of FCS are 20% in the CFU-GM assay and 10% in the tumor cell clonogenic assays. The IC50's are calculated as described above for the MTT proliferation assays.

other phosphoproteins = assay: Overall phosphoprotein changes in cell extracts; type: cell-based
Description: as §3

[3] = target: P-glycoprotein in MCF7 Adr 10 membrane vesicles (Homo sapiens, UniProt P08183); assay: biochemical; conditions: read-out: decrease of specific binding of [3H] VLB
MCF7 Adr 10 [4] = assay: 72 hour MTT proliferation assay, reversal of drug resistance in MCF7 Adr 10; type: cell-based, human
Procedure: (§4) In 72 hour MTT proliferation assays using the following method, compounds 1b, 1c and 1d were assessed for inhibition of Vinca alkaloid and anthracycline drug resistance in MDR MCF7. Additionally, compounds 1b and 1c were assessed for potentiation of sensitivity to Vinca alkaloid and anthracycline drugs in the parental MCF7 WT cell line.
(§5) METHOD: 5000 cells per well were plated in 100 μl of IMDM containing 10% FCS and allowed to adhere overnight. The following day the cells were treated with N-substituted 1,4-diaminoanthraquinones and exposed to graded concentrations of antineoplastic agents. 50 μl of IMDM 10% FCS containing either vehicle or N-substituted 1,4-diaminoanthraquinones at 3 times the final tested concentration was added to cells at timed intervals. The plates were incubated for 2 hours at 37° C. to allow maximal cellular accumulation of N-substituted 1,4-diaminoanthraquinones. 40 μl aliquots of IMDM 10% FCS containing either vehicle or graded concentrations of antineoplastic drugs at 5 times the final concentration were added to treatment groups. Following this addition, 10 μl of IMDM 10% FCS containing either vehicle or N-substituted 1,4-diaminoanthraquinone at 5 times the final concentration was added to each group of wells. The cells were incubated for 72 hours after treatment. At this time the viable cells in each treatment group were estimated in a colorimetric assay by adding MTT and incubating the cells at 37° C. for 3-4 hours. The media in each well was aspirated and MTT formazan was solubilized in isopropyl alcohol acidified with 0.1 N HCl. The absorbance of the solubilized formazan was quantitated using a plate reader spectrophotometer. […] The concentrations of antineoplastic drugs which inhibited proliferation by 50% (IC50's) were estimated by calculating a percentage from the ratio: antineoplastic drug treated groups/control group absorbance and plotting the dose response curve on semilog paper. The IC50 was estimated from this curve. To assess the effects of inhibition of resistance by N-substituted 1,4-diaminoanthraquinones, the percentages were calculated relative to cell groups treated with resistance modifier alone and IC50's calculated as above. A reversal factor was calculated by dividing the IC50 to the antineoplastic drug alone (Control group) by the IC50 to antineoplastic drug in cells treated with resistance modifier.

MCF7 WT = assay: 72 hour MTT proliferation assay, potentiation of sensitivity in MCF7 WT; type: cell-based, human; conditions: MCF7 WT
Procedure: as §4, §5

[5] = test system: MCF7 Adr 10 human breast cancer cells; assay: Vinblastine accumulation assay, MCF7 Adr 10; type: cell-based
Procedure: [^3 H] vinblastine ([^3 H] VLB) was added to a final concentration of 100 nM and the cells were incubated for 2.5 hours. At this time, the cells were washed 3 times in ice cold PBS and lysed in buffer containing 0.1% Triton X-100. Net accumulation of [^3 H] vinblastine was expressed as pmol/mg protein. In [^3 H]

Sequence of P-glycoprotein in MCF7 Adr 10 membrane vesicles (P08183 whole entry): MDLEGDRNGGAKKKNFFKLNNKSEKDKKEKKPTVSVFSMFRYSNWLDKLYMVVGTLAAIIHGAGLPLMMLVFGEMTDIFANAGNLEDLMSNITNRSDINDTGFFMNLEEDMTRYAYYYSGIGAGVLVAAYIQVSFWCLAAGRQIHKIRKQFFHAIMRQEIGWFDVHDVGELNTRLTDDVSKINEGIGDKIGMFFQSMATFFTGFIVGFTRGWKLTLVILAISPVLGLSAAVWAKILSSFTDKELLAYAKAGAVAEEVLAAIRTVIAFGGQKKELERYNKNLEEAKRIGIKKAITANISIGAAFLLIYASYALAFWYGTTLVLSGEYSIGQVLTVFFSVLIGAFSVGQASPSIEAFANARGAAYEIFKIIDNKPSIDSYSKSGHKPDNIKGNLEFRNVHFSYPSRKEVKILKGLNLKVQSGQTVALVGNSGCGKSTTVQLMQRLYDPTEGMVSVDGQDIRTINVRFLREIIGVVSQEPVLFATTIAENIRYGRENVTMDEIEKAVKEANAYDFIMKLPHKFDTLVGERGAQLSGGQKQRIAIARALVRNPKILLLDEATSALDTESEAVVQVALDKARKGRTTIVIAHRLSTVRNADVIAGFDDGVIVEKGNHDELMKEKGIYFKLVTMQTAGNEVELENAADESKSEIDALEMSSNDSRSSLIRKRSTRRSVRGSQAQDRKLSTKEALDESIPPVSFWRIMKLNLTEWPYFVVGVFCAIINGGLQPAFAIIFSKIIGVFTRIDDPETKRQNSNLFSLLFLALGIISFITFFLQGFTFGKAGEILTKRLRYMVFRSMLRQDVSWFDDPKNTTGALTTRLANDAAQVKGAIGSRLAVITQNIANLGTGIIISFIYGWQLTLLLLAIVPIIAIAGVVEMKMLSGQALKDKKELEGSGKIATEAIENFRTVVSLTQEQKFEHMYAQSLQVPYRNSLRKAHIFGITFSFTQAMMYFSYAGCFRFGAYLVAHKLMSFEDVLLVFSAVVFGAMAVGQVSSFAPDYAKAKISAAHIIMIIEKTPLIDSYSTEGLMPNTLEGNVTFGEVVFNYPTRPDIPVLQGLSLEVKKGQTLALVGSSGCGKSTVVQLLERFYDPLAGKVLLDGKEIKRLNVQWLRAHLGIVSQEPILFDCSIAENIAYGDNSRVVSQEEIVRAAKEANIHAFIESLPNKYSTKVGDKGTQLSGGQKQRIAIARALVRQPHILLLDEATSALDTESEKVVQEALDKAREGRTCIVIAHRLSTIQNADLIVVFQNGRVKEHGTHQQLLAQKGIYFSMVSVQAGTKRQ

O=C1c2ccccc2C(=O)c2c(NCCCN3CCOCC3)ccc(NCCCN3CCOCC3)c21 [Compound 1c, 1,4-bis-[[3'(4-morpholino)propyl]amino]anthraquinone] was tested, and the “activity in in vitro assays of serine threonine kinases” value (serine threonine kinases) was “does not show significant activity”, the “increase of P-glycoprotein phosphorylation” value (P-glycoprotein) was 6.6 fold and the “calmodulin kinase inhibitory activity” value (calmodulin kinase) was “did not inhibit”. The “casein kinase 2 inhibitory activity” value (casein kinase 2) was “did not inhibit”, the “vinblastine accumulation relative to verapamil” value [1] was “comparable or superior to verapamil activity” and the “increase of MARCKS phosphorylation” value (MARCKS protein) was 3 fold. The IC50 (MCF7 Adr 10 [2]; Homo sapiens, NCI/ADR-RES, tumor cell clonogenic assay, 10-12 days, read-out: Continuous Exposure IC50, MCF7 ADR 10) was 0.4 µM, the “antiproliferative effect relative to human CFU-GM” value (MCF7 Adr 10 [2]; MDR cancer cells, clonal proliferation assays) was ~20 times and the “relative sensitivity of MCF7 WT and MDR MCF7 to cytotoxicity” value (MCF7 Adr 10 [2]; clonogenic assays) was “MDR MCF7 are twice as sensitive to 1c cytotoxicity as MCF7 WT”. The “phosphorylation of other phosphoproteins” value (other phosphoproteins) was “did not significantly alter phosphorylation of other phosphoproteins”, the inhibition at 5 µM [3] was 29% and the inhibition at 10 µM [3] was 42%. The inhibition at 25 µM [3] was 69%, the “inhibition of Vinca alkaloid drug resistance” value (MCF7 Adr 10 [4]) was “inhibit Vinca alkaloid drug resistance at nanomolar concentrations” and the “inhibition of drug resistance / MDR phenotype” value (MCF7 Adr 10 [4]; MCF7 Adr 10) was “most potent inhibitor of the MDR phenotype in the MCF7 Adr 10 cell line; also recorded: more potent MDR phenotype inhibitor than 1d”. The “Reversal Factor (VCR)” value (MCF7 Adr 10 [4]; [1c] 0.1 μM) was 2.3, the “Reversal Factor (VLB)” value (MCF7 Adr 10 [4]; [1c] 0.1 μM) was 2.2 and the “Reversal Factor (VCR)” value (MCF7 Adr 10 [4]; [1c] 0.25 μM) was 5.0. The “Reversal Factor (VLB)” value (MCF7 Adr 10 [4]; [1c] 0.25 μM) was 3.5, the “Reversal Factor (ADR)” value (MCF7 Adr 10 [4]; [1c] 0.5 μM) was 2.0 and the “Reversal Factor (DNR)” value (MCF7 Adr 10 [4]; [1c] 0.5 μM) was 1.9. For the same compound, the “Reversal Factor (VCR)” value (MCF7 Adr 10 [4]; [1c] 0.5 μM) was 10.4, the “Reversal Factor (VLB)” value (MCF7 Adr 10 [4]; [1c] 0.5 μM) was 8.5 and the “Reversal Factor (ADR)” value (MCF7 Adr 10 [4]; [1c] 1.0 μM) was 3.3. For the same compound, the “Reversal Factor (DNR)” value (MCF7 Adr 10 [4]; [1c] 1.0 μM) was 3.2, the “Reversal Factor (VCR)” value (MCF7 Adr 10 [4]; [1c] 1.0 μM) was 24.8 and the “Reversal Factor (VLB)” value (MCF7 Adr 10 [4]; [1c] 1.0 μM) was 9.2. The “average cell growth in the presence of 1c alone, of the vehicle control” value (MCF7 Adr 10 [4]; test concentrations, n=14, 4320 min) was “greater than 86%”, the “effect on toxicity of vincristine in drug sensitive cells” value (MCF7 WT) was “enhances toxicity of vincristine in drug sensitive cells” and the “Reversal Factor (VCR)” value (MCF7 WT; [1c] 1.0 μM) was 1.9. For the same compound, the minimal effective concentration ([5]; Homo sapiens, NCI/ADR-RES, 100 nM [3H] VLB, 2.5 hours, FIGS. 2 and 3, read-out: lowest concentration which causes a doubling of basal accumulation of vinblastine) was 0.5 µM and the “activity in vinblastine accumulation assay / drug accumulation” value ([5]; MDR MCF7) was “greater activity than 1b; also recorded: greatest activity in drug accumulation assays; also recorded: increase vinblastine accumulation in MDR MCF7; also recorded: activity superior to verapamil at concentrations between 0.5 μM and 10 μM”.
